Reference: patent publication US12291508B2, “Hydrazide containing nuclear transport modulators and uses thereof” (Karyopharm Therapeutics Inc., priority 2011, dated 2025)
Counter-ions that a name gives are not always drawn.

How the values were obtained:
UACC812 = assay: Cell proliferation assay, UACC812; assay type: cell-based; settings: Homo sapiens, UACC-812; UACC812, type Lu, 72 h
Protocol: (§1) The cells were seeded at 5×10^3 to 1.5×10^4 cells (depending on cell type) in each well of a 96-well plate in 100 μL of fresh culture medium and adherent cells were allowed to attach overnight. The stock solutions of the compounds were diluted in cell culture medium to obtain eight concentrations of each drug, ranging from 1 nM to 30 μM and DMSO at less than 1% v/v was used as a negative control. The resulting drug solutions were transferred onto the cells. After 72 h of treatment, 20 μl of CellTiter 96® AQueous reagent was added into each well of the 96-well assay plates and the plate was incubated at 37° C. for 1-4 hours in a humidified, 5% CO2 atmosphere. Then the absorbance of each well was recorded at 490 nm using a 96-well plate reader. In most cases, the assay was performed in triplicate and the results were presented as half maximal inhibitory concentration (IC50).

BT-20 = assay: Cell proliferation assay, BT-20; assay type: cell-based; settings: Homo sapiens; BT-20, type BaA, 72 h
Protocol: as §1

HCC-202 = assay: Cell proliferation assay, HCC-202; assay type: cell-based; settings: HCC202; HCC-202, type Lu/HER+, 72 h
Protocol: as §1

BT-549 = assay: Cell proliferation assay, BT-549; assay type: cell-based; settings: Homo sapiens; BT-549, type BaB, 72 h
Protocol: as §1

HS578T cells = assay: Anti-apoptosis and cell cycle proteins immunoblot, HS578T; assay type: cell-based; settings: increasing concentrations, 24 hours
MDA-MB-231 = assay: Cell proliferation assay, MDA-MB-231; assay type: cell-based; settings: Homo sapiens; MDA-MB-231, type BaB, 72 h
Protocol: as §1

MCF12A = assay: Cell proliferation assay, MCF12A; assay type: cell-based; settings: Homo sapiens, MCF-12A, type BaB, 72 h
Protocol: as §1

[1] = tested on: MM.1S multiple myeloma cell line; assay: CellTiter 96 AQueous One Solution cell proliferation assay, MM.1S; assay type: cell-based; settings: Homo sapiens, MM1.S, 72 h of treatment, read-out: Cytotoxicity Assay
Text: The CellTiter 96® AQueous One Solution cell proliferation assay (Promega) was used on MM.1S multiple myeloma cell line to study the cytotoxic and cytostatic properties of the compounds. The assay is based on the cleavage of the tetrazolium salt, MTS, in the presence of an electron-coupling reagent PES (phenazine ethosulfate). The MTS tetrazolium compound is bioreduced by cells into a colored formazan product that is soluble in tissue culture medium. This conversion is presumably accomplished by NADPH or NADH produced by dehydrogenase enzymes in metabolically active cells. Assays are performed by adding a small amount of the CellTiter 96® AQueous One solution reagent directly to culture wells, incubating for 1-4 hours and then recording the absorbance at 490 nm with a 96-well plate reader.
as §1, with “cells” for “cells (depending on cell type)”, “(IC50). Optical density versus compound concentration was plotted and analyzed using non-linear regression equations (IDBS XLfit) and the IC50 for each compound was calculated.” for “(IC50).”

Zucker rats = assay type: in vivo; settings: orally administered at 0.625, 1.25 and 2.5 mg/kg
Protocol: For novel object recognition test, Zucker rats were placed into a test chamber (dimension 26″×18″×18″; L×W×H). Food and water was not be permitted during the test. The test had 3 phases: a) Familiarisation phase: Rats were singly placed in test chamber and allowed to freely explore for 60 min. The distance travelled by the animal during this phase was recorded using tracking software (AnyMaze system). The purpose of this phase was to familiarise the animals to the test apparatus. […] The distance travelled by the animal during this sample phase was automatically recorded, as well as the time spent by the animal interacting with the novel objects, using a tracking software system and visual observation. […] The distance travelled by the animal during the test phase was automatically recorded, as well as the time spent by the animal interacting with the novel and familiar objects, using a tracking software system and visual observation. Object interaction scores during both the sample and test phase were independently recorded by 2 observers. The final score represents the difference score between each reading. […]

[2] = target: T1, CRM1-mediated nuclear export (Homo sapiens, UniProt O14980); assay: RevGFP assay, inhibition of nuclear export; assay type: cell-based; settings: U2OS-RevGFP cells, about 1 hr incubation; read-out: Rev Export
T1 construct: endogenous in cells; host or cells: U2OS-RevGFP cells
Protocol: The ability of exemplary compounds of the invention to inhibit CRM1-mediated nuclear export was assessed in a RevGFP assay. Rev is a protein from human immunodeficiency virus type 1 (HIV-1) and contains a nuclear export signal (NES) in its C-terminal domain and a nuclear localization signal (NLS) in its N-terminal domain. Nuclear export of Rev protein is dependent on the classical NES/CRM1 pathway (Neville et al. 1997).
In this assay, U2OS-RevGFP cells were seeded onto clear-bottomed, black, 384-well plates the day before the experiment. Compounds were serially diluted 1:2 in DMEM, starting from 40 μM in a separate, 384-well plate, and then transferred onto the cells. The cells were incubated with compound for about 1 hr before fixation with 3.7% formaldehyde and nuclei staining with Hoechst 33258. The amount of GFP in cell nuclei was measured and the IC50 of each compound was determined (Kau et al. 2003).

T1 sequence (O14980 whole entry): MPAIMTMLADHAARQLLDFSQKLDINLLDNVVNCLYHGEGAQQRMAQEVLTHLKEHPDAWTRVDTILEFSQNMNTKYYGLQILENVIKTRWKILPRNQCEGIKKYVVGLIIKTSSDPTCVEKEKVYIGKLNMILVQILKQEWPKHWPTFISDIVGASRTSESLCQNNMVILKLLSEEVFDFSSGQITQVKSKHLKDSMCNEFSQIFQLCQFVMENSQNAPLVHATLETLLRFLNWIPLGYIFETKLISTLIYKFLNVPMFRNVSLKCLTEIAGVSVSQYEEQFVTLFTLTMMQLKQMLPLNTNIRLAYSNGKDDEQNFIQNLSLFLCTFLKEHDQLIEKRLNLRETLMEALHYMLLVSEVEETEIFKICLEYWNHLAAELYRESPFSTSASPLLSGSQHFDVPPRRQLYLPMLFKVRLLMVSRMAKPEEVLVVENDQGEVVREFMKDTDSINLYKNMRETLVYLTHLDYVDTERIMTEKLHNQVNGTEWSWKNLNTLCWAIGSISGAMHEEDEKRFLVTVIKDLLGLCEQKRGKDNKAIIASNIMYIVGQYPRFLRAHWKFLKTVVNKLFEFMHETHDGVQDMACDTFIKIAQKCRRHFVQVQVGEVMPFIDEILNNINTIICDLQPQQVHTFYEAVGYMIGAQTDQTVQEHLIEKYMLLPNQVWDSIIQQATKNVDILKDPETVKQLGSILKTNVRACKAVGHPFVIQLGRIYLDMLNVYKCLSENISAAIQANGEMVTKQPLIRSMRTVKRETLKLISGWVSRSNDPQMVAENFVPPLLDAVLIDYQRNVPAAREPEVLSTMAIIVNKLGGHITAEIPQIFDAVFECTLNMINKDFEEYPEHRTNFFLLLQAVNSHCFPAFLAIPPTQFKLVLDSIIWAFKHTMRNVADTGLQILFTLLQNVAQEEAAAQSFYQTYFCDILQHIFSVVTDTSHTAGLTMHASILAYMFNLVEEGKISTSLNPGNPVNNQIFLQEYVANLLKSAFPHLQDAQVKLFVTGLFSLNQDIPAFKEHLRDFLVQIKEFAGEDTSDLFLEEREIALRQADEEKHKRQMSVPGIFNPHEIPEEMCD

Structure (SMILES) | IC50 (UACC812) [nM] | IC50 (BT-20) [nM] | IC50 (HCC-202) [nM] | IC50 (BT-549) [nM] | MCL-1 protein level (HS578T cells) | IC50 (MDA-MB-231) [nM] | IC50 (MCF12A) [nM] | IC50 [1] [nM] | novel object recognition (object preference) (Zucker rats) | IC50 [2] [nM]
O=C(/C=C\n1cnc(-c2cc(C(F)(F)F)cc(C(F)(F)F)c2)n1)NNc1cnccn1 [Compound I-3, (Z)-3-(3-(3,5-bis(trifluoromethyl)phenyl)-1H-1,2,4-triazol-1-yl)-N′-(pyrazin-2-yl)acrylohydrazide] | 590 | 1500 | 5200 | 20 | a reduction in MCL-1 is observed | 10 | 150 | ≤ 1000 | – | –
O=C(/C=C\n1cnc(-c2cc(C(F)(F)F)cc(C(F)(F)F)c2)n1)NNc1ccccn1 [Compound I-4, (Z)-3-(3-(3,5-bis(trifluoromethyl)phenyl)-1H-1,2,4-triazol-1-yl)-N′-(pyridin-2-yl)acrylohydrazide hydrochloride] | – | – | – | – | – | – | – | ≤ 1000 | induced trends of improved novel object recognition | ≤ 1000
